From US20100076015A1, “Aminopyridine Derivatives” (VANTIA LIMITED, priority 2008, published 2010) come the findings set out here.

SMILES strings stand for the structures.

As usually defined, the IC50 is the midpoint of a concentration-inhibition curve. A high value points to weaker potency.

The target in the assay is T1, Human KLK1 (Homo sapiens, UniProt P06870).
T1 construct: purchased Callbiochem (Calbiochem)
T1 sequence (P06870 25-262): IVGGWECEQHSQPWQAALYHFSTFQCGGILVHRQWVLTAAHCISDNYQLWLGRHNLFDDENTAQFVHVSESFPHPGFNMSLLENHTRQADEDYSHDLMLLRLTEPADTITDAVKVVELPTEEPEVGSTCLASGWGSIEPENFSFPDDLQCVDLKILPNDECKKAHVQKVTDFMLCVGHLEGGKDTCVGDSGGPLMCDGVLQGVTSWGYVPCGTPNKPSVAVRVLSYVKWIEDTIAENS
The experiment in a line: Determination of the IC50 for KLK1 (fluorogenic substrate H-DVal-Leu-Arg-AFC). Type of assay: biochemical. The following applies: 37° C. The essentials: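 Human KLK1 incubated at 37° C with fluorogenic substrate H-DVal-Leu-Arg-AFC and a range of test compound concentrations. Residual activity taken as initial reaction rate from absorbance change at 410 nm; IC50 derived from these rates.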
`CCC(C)[C@H](C(=O)N[C@@H](Cc1ccc(F)c(F)c1)C(=O)NCc1ccc(N)nc1)N(C)C` (stereo partly drawn) [Example 358, (R)-2-Dimethylamino-3-methyl-pentanoic acid [(S)-1-[(6-amino-pyridin-3-ylmethyl)-carbamoyl]-2-(3,4-difluoro-phenyl)-ethyl]-amide] showed an IC50 of 10.4 nM.

Compound `CC(C)[C@H](C(=O)N[C@@H](Cc1ccc(F)c(F)c1)C(=O)NCc1ccc(N)nc1)N(C)C` [Example 359, (R)—N-[(S)-1-[(6-Amino-pyridin-3-ylmethyl)-carbamoyl]-2-(3,4-difluoro-phenyl)-ethyl]-2-dimethylamino-3-methyl-butyramide] had a half-maximal inhibitory concentration (IC50) of 5 nM.

`CC(C)N(C)[C@@H](CO)C(=O)N[C@@H](Cc1ccc(F)c(F)c1)C(=O)NCc1ccc(N)nc1` [Example 360, (S)—N-[(S)-1-[(6-Amino-pyridin-3-ylmethyl)-carbamoyl]-2-(3,4-difluoro-phenyl)-ethyl]-3-hydroxy-2-(isopropyl-methyl-amino)-propionamide] displayed an IC50 of 20.2 nM.

Regarding `CCN(C)[C@@H](CO)C(=O)N[C@@H](Cc1ccc(F)c(F)c1)C(=O)NCc1ccc(N)nc1` [Example 361, (S)—N-[(S)-1-[(6-Amino-pyridin-3-ylmethyl)-carbamoyl]-2-(3,4-difluoro-phenyl)-ethyl]-2-(ethyl-methyl-amino)-3-hydroxy-propionamide], 55.6 nM corresponded to half-maximal inhibition (IC50).

On to `CCN(CC)[C@@H](CO)C(=O)N[C@@H](Cc1ccc(F)c(F)c1)C(=O)NCc1ccc(N)nc1` [Example 362, (S)—N-[(S)-1-[(6-Amino-pyridin-3-ylmethyl)-carbamoyl]-2-(3,4-difluoro-phenyl)-ethyl]-2-diethylamino-3-hydroxy-propionamide], for which the midpoint of inhibition, the IC50, lay at 25.9 nM.

On to `CCN(CC)[C@H](CO)C(=O)N[C@@H](Cc1ccc(F)c(F)c1)C(=O)NCc1ccc(N)nc1` [Example 363, (R)—N-[(S)-1-[(6-Amino-pyridin-3-ylmethyl)-carbamoyl]-2-(3,4-difluoro-phenyl)-ethyl]-2-diethylamino-3-hydroxy-propionamide], for which the concentration for half-maximal inhibition (IC50) came to 84.4 nM. Against the preceding compound, the IC50 is about 3.3-fold higher.

For the compound `CCN(CC)[C@@H](CC(=O)OC)C(=O)N[C@@H](Cc1ccc(F)c(F)c1)C(=O)NCc1ccc(N)nc1` [Example 364, (S)—N-[(S)-1-[(6-Amino-pyridin-3-ylmethyl)-carbamoyl]-2-(3,4-difluoro-phenyl)-ethyl]-3-diethylamino-succinamic acid methyl ester], the IC50 was found to be 43.7 nM. This IC50 lies about 1.9-fold lower than the previous one.

`Nc1ccc(CNC(=O)[C@H](Cc2ccc(F)c(F)c2)NC(=O)CN2CCCC2)cn1` [Example 366, (S)—N-(6-Amino-pyridin-3-ylmethyl)-3-(3,4-difluoro-phenyl)-2-(2-pyrrolidin-1-yl-acetylamino)-propionamide] showed a half-inhibitory concentration (IC50) of 54.5 nM.

Consider `CCN(C)[C@@H](C)C(=O)N[C@@H](Cc1ccc(F)cc1)C(=O)NCc1ccc(N)nc1` [Example 367, (S)—N-[(S)-1-[(6-Amino-pyridin-3-ylmethyl)-carbamoyl]-2-(4-fluoro-phenyl)-ethyl]-2-(ethyl-methyl-amino)-propionamide], for which 10.8 nM corresponded to half-maximal inhibition (IC50).

`CCCN(C)[C@@H](C)C(=O)N[C@@H](Cc1ccc(F)cc1)C(=O)NCc1ccc(N)nc1` [Example 368, (S)—N-[(S)-1-[(6-Amino-pyridin-3-ylmethyl)-carbamoyl]-2-(4-fluoro-phenyl)-ethyl]-2-(methyl-propyl-amino)-propionamide] gave a half-inhibitory concentration (IC50) of 19.4 nM.

As for `CCCCN(C)[C@@H](C)C(=O)N[C@@H](Cc1ccc(F)cc1)C(=O)NCc1ccc(N)nc1` [Example 369, (S)—N-[(S)-1-[(6-Amino-pyridin-3-ylmethyl)-carbamoyl]-2-(4-fluoro-phenyl)-ethyl]-2-(butyl-methyl-amino)-propionamide], inhibition was half-maximal at 29.1 nM (IC50).

`CC(C)[C@@H](C(=O)N[C@@H](Cc1ccc(F)cc1)C(=O)NCc1ccc(N)nc1)N(C)C(C)C` [Example 370, (S)—N-[(S)-1-[(6-Amino-pyridin-3-ylmethyl)-carbamoyl]-2-(4-fluoro-phenyl)-ethyl]-2-(isopropyl-methyl-amino)-3-methyl-butyramide] displayed an IC50 of 11.3 nM. This IC50 is about 2.6-fold lower than that of the compound before.

The compound `CCC(C)[C@@H](C(=O)N[C@@H](Cc1ccc(F)cc1)C(=O)NCc1ccc(N)nc1)N(C)C(C)C` (stereo partly drawn) [Example 371, (S)-2-(Isopropyl-methyl-amino)-3-methyl-pentanoic acid [(S)-1-[(6-amino-pyridin-3-ylmethyl)-carbamoyl]-2-(4-fluoro-phenyl)-ethyl]-amide] had an IC50 of 7.3 nM.

Turning to `CC(C)N(C(C)C)[C@@H](C)C(=O)N[C@@H](Cc1ccc(F)cc1)C(=O)NCc1ccc(N)nc1` [Example 372, (S)—N-[(S)-1-[(6-Amino-pyridin-3-ylmethyl)-carbamoyl]-2-(4-fluoro-phenyl)-ethyl]-2-diisopropylamino-propionamide], it took 34.3 nM to reach half-maximal inhibition (IC50). This IC50 is about 4.7-fold higher than that of the compound before.

For the compound `CC(C)N(C)[C@@H](Cc1ccccc1)C(=O)N[C@@H](Cc1ccc(F)cc1)C(=O)NCc1ccc(N)nc1` [Example 373, (S)—N-[(S)-1-[(6-Amino-pyridin-3-ylmethyl)-carbamoyl]-2-(4-fluoro-phenyl)-ethyl]-2-(isopropyl-methyl-amino)-3-phenyl-propionamide], inhibition was half-maximal at 25.7 nM (IC50).

In turn, `C[C@H](C(=O)N[C@@H](Cc1ccc(F)cc1)C(=O)NCc1ccc(N)nc1)N1CCCCC1` [Example 374, (R)—N-[(S)-1-[(6-Amino-pyridin-3-ylmethyl)-carbamoyl]-2-(4-fluoro-phenyl)-ethyl]-2-piperidin-1-yl-propionamide] yielded an IC50 of 52.7 nM.

On to `C[C@@H](C(=O)N[C@@H](Cc1ccc(F)cc1)C(=O)NCc1ccc(N)nc1)N1CCCCC1` [Example 375, (S)—N-[(S)-1-[(6-Amino-pyridin-3-ylmethyl)-carbamoyl]-2-(4-fluoro-phenyl)-ethyl]-2-piperidin-1-yl-propionamide], for which the concentration for half-maximal inhibition (IC50) came out at 4.9 nM.

Consider `CCN(CC)[C@@H](C)C(=O)N[C@@H](Cc1ccc(F)cc1)C(=O)NCc1ccc(N)nc1` [Example 376, (S)—N-[(S)-1-[(6-Amino-pyridin-3-ylmethyl)-carbamoyl]-2-(4-fluoro-phenyl)-ethyl]-2-diethylamino-propionamide], for which the half-maximal inhibitory concentration (IC50) was 2.7 nM.

As to `CCC(C)[C@H](C(=O)N[C@@H](Cc1cccc(F)c1)C(=O)NCc1ccc(N)nc1)N(C)C` (stereo partly drawn) [Example 377, (R)-2-Dimethylamino-3-methyl-pentanoic acid [(S)-1-[(6-amino-pyridin-3-ylmethyl)-carbamoyl]-2-(3-fluoro-phenyl)-ethyl]-amide], the IC50 was determined as 32.2 nM. This IC50 is about 12-fold higher than that of the compound before.

On to `CC1CCCC(C)N1CC(=O)N[C@@H](Cc1ccc(F)cc1)C(=O)NCc1ccc(N)nc1` (stereo partly drawn) [Example 378, (S)—N-(6-Amino-pyridin-3-ylmethyl)-2-[2-(2,6-dimethyl-piperidin-1-yl)-acetylamino]-3-(4-fluoro-phenyl)-propionamide], for which it took 2.5 nM to reach half-maximal inhibition (IC50).

The compound `Nc1ccc(CNC(=O)[C@H](Cc2ccc(F)cc2)NC(=O)CN2CCCCC2)cn1` [Example 379, (S)—N-(6-Amino-pyridin-3-ylmethyl)-3-(4-fluoro-phenyl)-2-(2-piperidin-1-yl-acetylamino)-propionamide] showed an IC50 of 128 nM. Against the preceding compound, the IC50 is about 51-fold higher.

`CCN(CC)CC(=O)N[C@@H](Cc1ccc(F)cc1)C(=O)NCc1ccc(N)nc1` [Example 380, (S)—N-(6-Amino-pyridin-3-ylmethyl)-2-(2-diethylamino-acetylamino)-3-(4-fluoro-phenyl)-propionamide] returned an IC50 of 13.9 nM. Against the preceding compound, the IC50 is about 9.2-fold lower.

In turn, `CN1CCC[C@H]1C(=O)N[C@@H](CC1CCCCC1)C(=O)NCc1ccc(N)nc1` [Example 382, (S)-1-Methyl-pyrrolidine-2-carboxylic acid {(S)-1-[(6-amino-pyridin-3-ylmethyl)-carbamoyl]-2-cyclohexyl-ethyl}-amide] registered an IC50 of 48.6 nM. This IC50 is about 3.5-fold higher than that of the compound before.

With `CCCN(C)[C@@H](C)C(=O)N[C@@H](CC1CCCCC1)C(=O)NCc1ccc(N)nc1` [Example 383, (S)—N-{(S)-1-[(6-Amino-pyridin-3-ylmethyl)-carbamoyl]-2-cyclohexyl-ethyl}-2-(methyl-propyl-amino)-propionamide], half-maximal inhibition (IC50) was put at 45.9 nM.

In turn, `CCN(C)[C@@H](C)C(=O)N[C@@H](CC1CCCCC1)C(=O)NCc1ccc(N)nc1` [Example 384, (S)—N-{(S)-1-[(6-Amino-pyridin-3-ylmethyl)-carbamoyl]-2-cyclohexyl-ethyl}-2-(ethyl-methyl-amino)-propionamide] came in with an IC50 of 9.7 nM.

Turning to `CCCN(CCC)[C@@H](C)C(=O)N[C@@H](CC1CCCCC1)C(=O)NCc1ccc(N)nc1` [Example 385, (S)—N-{(S)-1-[(6-Amino-pyridin-3-ylmethyl)-carbamoyl]-2-cyclohexyl-ethyl}-2-dipropylaminopropionamide], the 50% inhibitory concentration (IC50) is 107 nM. This IC50 is about 11-fold higher than that of the compound before.

In turn, `CN(C)[C@@H](CO)C(=O)N[C@@H](CC1CCCCC1)C(=O)NCc1ccc(N)nc1` [Example 386, (S)—N-{(S)-1-[(6-Amino-pyridin-3-ylmethyl)-carbamoyl]-2-cyclohexyl-ethyl}-2-dimethylamino-3-hydroxy-propionamide] came in with an IC50 of 260 nM.

The compound `CCN(C)[C@@H](CO)C(=O)N[C@@H](CC1CCCCC1)C(=O)NCc1ccc(N)nc1` [Example 387, (S)—N-{(S)-1-[(6-Amino-pyridin-3-ylmethyl)-carbamoyl]-2-cyclohexyl-ethyl}-2-(ethyl-methyl-amino)-3-hydroxy-propionamide] registered a half-inhibitory concentration (IC50) of 170 nM. This IC50 lies about 1.5-fold lower than the previous one.

`CC(C)N(C)[C@@H](CO)C(=O)N[C@@H](CC1CCCCC1)C(=O)NCc1ccc(N)nc1` [Example 388, (S)—N-{(S)-1-[(6-Amino-pyridin-3-ylmethyl)-carbamoyl]-2-cyclohexyl-ethyl}-3-hydroxy-2-(isopropyl-methyl-amino)-propionamide] returned a half-inhibitory concentration (IC50) of 22.2 nM. This IC50 lies about 7.7-fold lower than the previous one.

In turn, `CCN(CC)[C@@H](CO)C(=O)N[C@@H](CC1CCCCC1)C(=O)NCc1ccc(N)nc1` [Example 389, (S)—N-{(S)-1-[(6-Amino-pyridin-3-ylmethyl)-carbamoyl]-2-cyclohexyl-ethyl}-2-diethylamino-3-hydroxy-propionamide] had a half-inhibitory concentration (IC50) of 42.9 nM. Against the preceding compound, the IC50 is about 1.9-fold higher.
